Common to all, as to assay: inhibition of tumour cell growth, NCI panel, 48 h
Assay [1] relates to CAKI-1.
Assay [2] concerns DU-145.
The test system of assay [3] is HCC 2998.
For assay [4], the system named is HCT-116.
The test system of assay [5] is KM12.
For assay [6], the system named is MDA-MB-231.
Assay [7] has as its system NCI-H226.
Assay [8] deals with NCI-H23.
Assay [9] concerns NCI-H460.
The test system of assay [10] is NCI/ADR-RES.
Assay [11] has as its system OVCAR-3.
Assay [12] concerns OVCAR-4.
Assay [13] concerns OVCAR-8.
The subject of assay [14] is SF-539.
In assay [15] the test system is SK-MEL-28.
Assay [16] deals with SK-MEL-2.
Assay [17] deals with TK-10.
Assay [18] deals with U-251.
Assay [19] concerns UO-31.
The subject of assay [20] is SNB-75.

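Compound exposure: 48 hours, 5 concentrations, 96-well plates. At the GI50, growth is halved.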 Activity calls are given as the source filed them. Rule as the data show it: active = GI50 up to about 1.1 µM and inactive = higher.

The results in this text go back to ChEMBL document CHEMBL1201862, “PubChem BioAssay data set” (2004).

For the compound `Cc1nnc2n1N=C(c1cc(F)c(Cl)cc1Cl)/C(=C/c1ccc3c(c1)OCO3)S2`, the GI50 in [1] is 69.7 µM (inactive); in assay [2] it was 72.8 µM (inactive); in assay [3], 48.4 µM (inactive); in assay [4], 47.8 µM (inactive); in assay [5], > 100 µM (inactive); in assay [6] it was > 100 µM (inactive). For the same compound, the GI50 is > 100 µM (inactive) in assay [7]; 90.8 µM (inactive) in assay [8]; > 100 µM (inactive) in assay [9]; 69.2 µM (inactive) in assay [10]; 34.4 µM (inactive) in assay [11]; 51.6 µM (inactive) in assay [12]. For the same compound, the GI50 in [13] is 65.3 µM (inactive); in assay [14], > 100 µM (inactive); in assay [15], > 100 µM (inactive); in [16], 44 µM (inactive); in assay [17], > 100 µM (inactive); in assay [18], 56.6 µM (inactive). In assay [19], the GI50 was > 100 µM (inactive).
With `COc1cc2c(c(OC)c1OC)C(=O)[C@@H](O)[C@H]2NC(N)=O`, the GI50 in [1], in [2], in assay [3], in assay [4], in assay [5] and in assay [6] was > 100 µM (inactive) each time. Also, the GI50 in assay [7], in assay [8], in assay [9], in [10], in assay [11] and in assay [13] was > 100 µM (inactive) in each case. For the same compound, the GI50 in [14], in [15], in [20], in assay [17], in [18] and in assay [19] was > 100 µM (inactive) throughout.
Take `CSc1nc(NC2CC2)c2c(n1)Sc1nc3ccccc3n1N=C2`: the GI50 in [1] is 34.9 µM (inactive); in assay [2], 23.5 µM (inactive); in assay [3] it was 27.5 µM (inactive); in [4] it was 9.73 µM (inactive); in assay [5], 56.2 µM (inactive); in [6], 17.8 µM (inactive). Also, the GI50 in assay [7] is 16.8 µM (inactive); in assay [8], 21.4 µM (inactive); in [9], 25.1 µM (inactive); in [10], 20.3 µM (inactive); in assay [11] it was 17.3 µM (inactive); in assay [12] it was 16.7 µM (inactive). The GI50 in [13] is 10.1 µM (inactive); in assay [14], 12.2 µM (inactive); in [15], > 100 µM (inactive); in assay [16] it was 30.3 µM (inactive); in assay [17] it was 25.1 µM (inactive); in assay [18], 20 µM (inactive). The GI50 in [19] was 16.5 µM (inactive).
In the case of `CC(=O)c1cccc(Nc2c3ccccc3nc3occc23)c1`, the GI50 in assay [1] was 2.48 µM (inactive); in assay [2], 11 µM (inactive); in assay [3] it was 5.21 µM (inactive); in assay [4], 3.5 µM (inactive); in [5], 4.73 µM (inactive); in assay [6], 9.93 µM (inactive). The GI50 was 10.8 µM (inactive) in assay [7]; 3.01 µM (inactive) in assay [8]; 22.8 µM (inactive) in assay [9]; 2.51 µM (inactive) in [10]; 1.82 µM (inactive) in [11]; 0.438 µM (active) in [12]. Further, the GI50 in [13] is 15.3 µM (inactive); in assay [14] it was 2.16 µM (inactive); in assay [15], 2.67 µM (inactive); in [16], 2.74 µM (inactive); in [17] it was 16.2 µM (inactive); in assay [18] it was 5.16 µM (inactive). For the same compound, the GI50 in [19] was 12.5 µM (inactive).
